Results taken from paper PMC10977697 (PLOS ONE, 2024).
Where a SMILES comes first, the peptide text is derived from it. Where no end group is shown, it is not given here.

Key:
HtrA1 = format: binding, human; conditions: ratio of signal for target protein over BSA background
HtrA1 FL [1] = molecular target: T1, HtrA1 FL (Homo sapiens, UniProt Q92743); assay: HtrA1 enzyme assay with substrate H2-OPT; format: biochemical; conditions: 20 μM DCP, 1 nM HtrA1, 5 μM H2-OPT, 15 min pre-incubation, 37°C, pH 8.0, 0.1% DMSO; average of three independent experiments (Fig 3B)
T1 construct: HtrA1 (Q23-P480, 5654, Tni Baculovirus); made in house; host or cells: Trichoplusia ni (Tni) cells, baculovirus
T1 sequence (Q92743 23-480): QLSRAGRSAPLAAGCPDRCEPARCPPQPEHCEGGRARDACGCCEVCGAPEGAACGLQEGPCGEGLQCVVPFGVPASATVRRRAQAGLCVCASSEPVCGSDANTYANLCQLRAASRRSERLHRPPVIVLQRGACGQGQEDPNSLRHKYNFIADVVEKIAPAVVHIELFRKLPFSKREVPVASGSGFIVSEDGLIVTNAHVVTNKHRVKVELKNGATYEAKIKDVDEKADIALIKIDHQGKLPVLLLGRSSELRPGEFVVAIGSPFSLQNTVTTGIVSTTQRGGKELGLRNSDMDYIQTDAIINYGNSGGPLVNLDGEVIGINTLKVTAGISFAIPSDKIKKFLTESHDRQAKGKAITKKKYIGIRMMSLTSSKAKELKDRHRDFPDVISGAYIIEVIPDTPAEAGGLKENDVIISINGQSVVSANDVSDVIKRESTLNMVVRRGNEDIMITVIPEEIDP
Description: Human full-length HtrA1 (HtrA1 FL) was expressed in Trichoplusia ni cells and purified as described. Enzyme assays with the fluorescence-quenched synthetic substrate Mca-[…](Dnp)KK (H2-OPT) were carried out essentially as described (Eigenbrot 2012). DCP stock solutions in DMSO were diluted in 50 mM Tris-HCl, pH 8.0, 200 mM NaCl, 0.25% CHAPS (assay buffer) and incubated with HtrA1 in 96-well black optical bottom plates for 15 min at 37°C. A 10 mM stock solution of H2-OPT in DMSO was diluted with water, prewarmed at 37°C and then added to the DCP-enzyme mixtures. The final concentrations in the reaction mixtures were: 1 nM HtrA1, 20 μM DCP, 5 μM H2-OPT, 0.1% DMSO. Substrate cleavage was measured at 37°C on a SPECTRAmax M5 microplate reader (Molecular Devices) and the initial rates of cleavage determined. […] The enzyme activities were expressed as percent of control values (without DCP). The determined values represent the average ± S.D. of three independent experiments.

HtrA1 FL [2] = molecular target: T1, HtrA1 FL; format: binding; conditions: Biacore S200, 25°C; biotinylated HtrA1 FL on chip SA; 10 mM HEPES (8.0), 200mM NaCl, 0.25% CHAPS, 5% DMSO; steady state fitting; n/d = no binding; read-out: Kd(μM) SPR
[3] = molecular target: T2, Notch2Long (Notch2 EGF6-EGF12) (Homo sapiens, UniProt Q04721); assay: SPR binding of synthetic DCPs to Notch2Long; conditions: Biacore S200, 25°C, 50 μL/min; synthetic in vitro folded peptide, 3-fold dilution from 100 μM; biotinylated N2L on chip SA; steady state fitting; at least three independent experiments; n/d = no binding
T2 construct: Biotinylated N2L protein (D219–E418, made in-house); His tag (cleaved yes); made in house; host or cells: CHO
T2 sequence (Q04721 219-418): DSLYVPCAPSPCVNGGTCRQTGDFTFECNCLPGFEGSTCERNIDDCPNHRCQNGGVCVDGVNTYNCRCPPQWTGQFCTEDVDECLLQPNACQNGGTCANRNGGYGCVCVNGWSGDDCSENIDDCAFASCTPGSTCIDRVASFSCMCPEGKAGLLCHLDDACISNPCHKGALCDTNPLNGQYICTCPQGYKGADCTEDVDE
Description: (§1) All binding experiments were performed using a Biacore S200 instrument (GE Healthcare) at 25°C at a flow rate of 50 μL/min. The kinetics and affinity measurements were carried out using either single-cycle or multi-cycle kinetics (SCK or MCK), solvent corrected and referenced by subtracting the signal to the blank flow cell. Binding affinity and kinetic parameters (association and dissociation rate constants, and dissociation equilibrium constant) were calculated with the Biacore S200 Evaluation Software (version 1.1.1, Cytiva) using either a 1:1 binding model or a steady-state equilibrium model (according to the manufacturer’s instructions).
(§2) Biotinylated N2L protein (D219–E418, made in-house) and NRR protein (A1423–Q1677, made in-house) were captured at around 500, 1000 and 1500 RU on Sensor Chip SA (Cytiva).

Notch2NRR = assay: Spot phage ELISA, Notch2NRR; format: binding, human; conditions: ratio of signal for target protein over BSA background
[4] = molecular target: T3, Notch2NRR (Notch2 NRR domain) (Homo sapiens, UniProt Q04721); assay: SPR binding of synthetic DCPs to Notch2NRR; conditions: Biacore S200, 25°C; synthetic folded peptide, 3-fold dilution from 100 μM; biotinylated NRR on chip SA; steady state fitting
T3 construct: NRR protein (A1423–Q1677, made in-house); His tag (cleaved yes); made in house; host or cells: CHO
T3 sequence (Q04721 1423-1677): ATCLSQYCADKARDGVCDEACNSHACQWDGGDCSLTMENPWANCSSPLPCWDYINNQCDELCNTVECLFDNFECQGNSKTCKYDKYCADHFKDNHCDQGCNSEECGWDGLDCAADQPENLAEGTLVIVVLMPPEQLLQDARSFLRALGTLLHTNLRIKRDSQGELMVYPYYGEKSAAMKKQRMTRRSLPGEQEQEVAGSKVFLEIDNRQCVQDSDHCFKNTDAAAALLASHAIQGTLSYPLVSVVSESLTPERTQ
Description: as §1, §2

BamA-amphipol = assay: Spot phage ELISA, BamA-amphipol; format: binding, bacterial

Molecule	Kd [3] [µM]	s/n ratio (Notch2NRR)	Kd [4] [µM]	also measured
CC[C@H](C)[C@@H]1NC(=O)[C@H](CCC(N)=O)NC(=O)[C@H](CCCNC(=N)N)NC(=O)[C@H](C(C)C)NC(=O)[C@@H]2CSSC[C@H](NC(=O)[C@H](CC(=O)O)NC(=O)[C@H](Cc3ccccc3)NC(=O)[C@H](C)N)C(=O)N[C@@H](CC(C)C)C(=O)NCC(=O)N[C@@H](CCC(N)=O)C(=O)N[C@H]3CSSC[C@H](NC(=O)[C@H](Cc4ccc(O)cc4)NC(=O)[C@H](Cc4c[nH]cn4)NC(=O)[C@H](CO)NC(=O)[C@H](CC(C)C)NC(=O)[C@H](CC(N)=O)NC(=O)[C@H]([C@@H](C)CC)NC(=O)[C@H](C(C)C)NC(=O)[C@H](CCCNC(=N)N)NC(=O)[C@H](Cc4c[nH]c5ccccc45)NC(=O)[C@H](C(C)C)NC1=O)C(=O)N[C@@H](CC(N)=O)C(=O)N[C@@H](CO)C(=O)N[C@@H](CO)C(=O)N[C@H](C(=O)N[C@H](C(=O)N[C@@H](CCCNC(=N)N)C(=O)O)[C@@H](C)O)CSSC[C@H](NC(=O)[C@H](CCCNC(=N)N)NC(=O)CNC3=O)C(=O)N[C@@H](CC(=O)O)C(=O)N[C@@H](Cc1ccccc1)C(=O)N[C@@H](Cc1c[nH]cn1)C(=O)N[C@@H](CCCCN)C(=O)N[C@@H](CC(C)C)C(=O)N[C@@H](CCC(N)=O)C(=O)N2 [HtrA1_AVR62] (HELM PEPTIDE1{A.F.D.C.L.G.Q.C.G.R.C.D.F.H.K.L.Q.C.V.R.Q.I.V.W.R.V.I.N.L.S.H.Y.C.N.S.S.C.T.R}$PEPTIDE1,PEPTIDE1,4:R3-18:R3|PEPTIDE1,PEPTIDE1,8:R3-33:R3|PEPTIDE1,PEPTIDE1,11:R3-37:R3$$$V2.0; N-terminus and C-terminus assumed)				S/N (HtrA1): 19.5; inhibition of HtrA1 activity (HtrA1 FL [1]): more than 75%; Kd (HtrA1 FL [2]): > 15 µM
CC[C@H](C)[C@@H]1NC(=O)[C@@H](NC(=O)CN)CSSC[C@@H]2NC(=O)CNC(=O)[C@H](C)NC(=O)[C@H](CCC(=O)O)NC(=O)[C@@H]3CSSC[C@@H](C(=O)NCC(=O)O)NC(=O)[C@H](CCC(N)=O)NC(=O)[C@H]([C@@H](C)CC)NC(=O)[C@H](Cc4c[nH]c5ccccc45)NC(=O)[C@H](C(C)C)NC(=O)[C@H](CCC(=O)O)NC(=O)[C@H](CSSC[C@H](NC(=O)[C@H](Cc4c[nH]c5ccccc45)NC(=O)[C@H](CC(C)C)NC(=O)[C@H](Cc4c[nH]cn4)NC(=O)[C@H](CO)NC(=O)[C@H](CCCCN)NC1=O)C(=O)N1CCC[C@H]1C(=O)N[C@@H](CCCCN)C(=O)N[C@@H]([C@@H](C)O)C(=O)N[C@@H](CO)C(=O)N[C@@H](CC(=O)O)C(=O)N3)NC(=O)[C@H]([C@@H](C)CC)NC2=O [N2L.EET31.43.24] (HELM PEPTIDE1{G.C.I.K.S.H.L.W.C.P.K.T.S.D.C.E.A.G.C.I.C.E.V.W.I.Q.C.G}$PEPTIDE1,PEPTIDE1,2:R3-19:R3|PEPTIDE1,PEPTIDE1,9:R3-21:R3|PEPTIDE1,PEPTIDE1,15:R3-27:R3$$$V2.0)	3.5			
CC[C@H](C)[C@@H]1NC(=O)[C@@H](NC(=O)CN)CSSC[C@@H]2NC(=O)CNC(=O)[C@H](C)NC(=O)[C@H](CCC(=O)O)NC(=O)[C@@H]3CSSC[C@@H](C(=O)NCC(=O)O)NC(=O)[C@H](CCC(N)=O)NC(=O)[C@H]([C@@H](C)CC)NC(=O)[C@H](Cc4c[nH]c5ccccc45)NC(=O)[C@H]([C@@H](C)CC)NC(=O)[C@H](CCC(=O)O)NC(=O)[C@H](CSSC[C@H](NC(=O)[C@H](Cc4c[nH]c5ccccc45)NC(=O)[C@H](C(C)C)NC(=O)[C@H](Cc4c[nH]cn4)NC(=O)[C@H](CO)NC(=O)[C@H](CCCNC(=N)N)NC1=O)C(=O)N[C@@H](CCCCN)C(=O)N[C@@H](CCC(N)=O)C(=O)N[C@@H](CC(=O)O)C(=O)N[C@@H](CO)C(=O)N[C@@H](CC(=O)O)C(=O)N3)NC(=O)[C@H]([C@@H](C)CC)NC2=O [N2L.EET31.43.43] (HELM PEPTIDE1{G.C.I.R.S.H.V.W.C.K.Q.D.S.D.C.E.A.G.C.I.C.E.I.W.I.Q.C.G}$PEPTIDE1,PEPTIDE1,2:R3-19:R3|PEPTIDE1,PEPTIDE1,9:R3-21:R3|PEPTIDE1,PEPTIDE1,15:R3-27:R3$$$V2.0)	3.5			
CC(C)C[C@@H]1NC(=O)[C@@H](NC(=O)[C@H](CC(=O)O)NC(=O)[C@H](Cc2ccccc2)NC(=O)[C@H](C)N)CSSC[C@@H]2NC(=O)[C@H](CCC(N)=O)NC(=O)[C@H](CC(C)C)NC(=O)[C@H](CCCCN)NC(=O)[C@H](Cc3c[nH]cn3)NC(=O)[C@H](Cc3ccccc3)NC(=O)[C@H](CC(=O)O)NC(=O)[C@@H]3CSSC[C@@H](C(=O)N[C@H](C(=O)N[C@@H](CCCNC(=N)N)C(=O)O)[C@@H](C)O)NC(=O)[C@H](CO)NC(=O)[C@H](CO)NC(=O)[C@H](CC(N)=O)NC(=O)[C@H](CSSC[C@H](NC(=O)[C@H](CCC(N)=O)NC(=O)CNC1=O)C(=O)NCC(=O)N[C@@H](CCCNC(=N)N)C(=O)N3)NC(=O)[C@H](Cc1ccc(O)cc1)NC(=O)[C@H](CCC(N)=O)NC(=O)[C@H](CCCCN)NC(=O)[C@H](Cc1ccc(O)cc1)NC(=O)[C@H]([C@@H](C)O)NC(=O)[C@H](Cc1c[nH]c3ccccc13)NC(=O)[C@H](CO)NC(=O)[C@H](Cc1ccc(O)cc1)NC(=O)[C@@H]1CCCN1C(=O)[C@H](C(C)C)NC2=O [N2N-AVR-19] (HELM PEPTIDE1{A.F.D.C.L.G.Q.C.G.R.C.D.F.H.K.L.Q.C.V.P.Y.S.W.T.Y.K.Q.Y.C.N.S.S.C.T.R}$PEPTIDE1,PEPTIDE1,4:R3-18:R3|PEPTIDE1,PEPTIDE1,8:R3-29:R3|PEPTIDE1,PEPTIDE1,11:R3-33:R3$$$V2.0; N-terminus and C-terminus assumed)		35.7	9.4	
CC(C)C[C@@H]1NC(=O)[C@@H](NC(=O)[C@H](CC(=O)O)NC(=O)[C@H](Cc2ccccc2)NC(=O)[C@H](C)N)CSSC[C@@H]2NC(=O)[C@H](CCC(N)=O)NC(=O)[C@H](CC(C)C)NC(=O)[C@H](CCCCN)NC(=O)[C@H](Cc3c[nH]cn3)NC(=O)[C@H](Cc3ccccc3)NC(=O)[C@H](CC(=O)O)NC(=O)[C@@H]3CSSC[C@@H](C(=O)N[C@H](C(=O)N[C@@H](CCCNC(=N)N)C(=O)O)[C@@H](C)O)NC(=O)[C@H](CO)NC(=O)[C@H](CO)NC(=O)[C@H](CC(N)=O)NC(=O)[C@H](CSSC[C@H](NC(=O)[C@H](CCC(N)=O)NC(=O)CNC1=O)C(=O)NCC(=O)N[C@@H](CCCNC(=N)N)C(=O)N3)NC(=O)[C@H](Cc1ccc(O)cc1)NC(=O)[C@@H]1CCCN1C(=O)[C@H](CO)NC(=O)[C@H](Cc1c[nH]cn1)NC(=O)[C@H](CCCNC(=N)N)NC(=O)[C@H](CC(N)=O)NC(=O)[C@H](CO)NC(=O)[C@H](Cc1c[nH]c3ccccc13)NC(=O)[C@H](C(C)C)NC2=O [N2N-AVR-n6] (HELM PEPTIDE1{A.F.D.C.L.G.Q.C.G.R.C.D.F.H.K.L.Q.C.V.W.S.N.R.H.S.P.Y.C.N.S.S.C.T.R}$PEPTIDE1,PEPTIDE1,4:R3-18:R3|PEPTIDE1,PEPTIDE1,8:R3-28:R3|PEPTIDE1,PEPTIDE1,11:R3-32:R3$$$V2.0; N-terminus and C-terminus assumed)		39.3	0.8	
GCTMWQRLQAKYCKQDSDCLAGCVCHAREKCG (also: bicyclic or more (positions not given here)) [BamA-amphipol EET I-II 1]				S/N (BamA-amphipol; ratio of signal for target protein over BSA background): 8.1; ELISA (BamA-amphipol; spot phage ELISA signal, DCP displayed on M13 p8): 1.50
